Data on one substance can be found in patent US20160031937A1, “NEURAL REGENERATION PEPTIDES AND USES THEREFOR” (CURONZ HOLDINGS COMPANY LIMITED, priority 2013, published 2016).

Assay [1] has as its system NRP 13q13.2 gene expression. As to the kind of experiment: NRP 13q13.2 gene expression by semi-quantitative RT-PCR in NTERA-2 cells. It is filed as cell-based, human. As to the method:
mRNA was extracted according to standard procedures (TRIzole® from Invitrogen or RNeasy Mini from Qiagen). The mRNA fraction was subjected to DNase I treatment using DNaseI incubation mixture. For this treatment, 10 μl DNaseI stock plus 70 μl buffer was added to mRNA preparation and incubated for 5 minutes at room temperature. cDNA synthesis was then carried out according to standard procedures (SuperScript® III Reverse Transcriptase from Invitrogen).
The optimized RT-PCR strategy used an intron-spanning forward primer with high GC-content and TM (78° C.) and a reverse primer with a lower TM (60° C.). These primers are shown in FIG. 10, and also further below. The mRNA was treated with DNase I before starting the synthesis of cDNA, as the intron-spanning primer only bridged an intron of 9 nucleic acids.
The expected RT-PCR product was 221 by in length. PCR conditions included annealing at 58° C. and 36 total cycles. Samples were incubated at 94° C. for 5 minutes as the start of the GeneAmp® cycler operation. The 36 cycles included the sequence: 94° C. for 30 seconds; 58° C. for 30 seconds; 72° C. for 30 seconds; followed by cooling to 15° C. at the end of the PCR.
The PCR-reaction included: 10× buffer (2.50 μl), 50 mM MgCl2 (0.75 μl), 10 mM dNTPs (0.50 μl), Primer 1 (0.50 μl), Primer 2 (0.50 μl), Taq Polymerase (0.10 μl), cDNA (1.00 μl ), H2O (19.15 μl), to yield a total volume of 25.00 μl. Taq DNA Polymerase was sourced from Invitrogen (Platinum® Taq Polymerase).
NTERA-2 (ATCC No. CRL-1973) is a human carcinoma derived pluripotent cell line that has only single copies of chromosome 1, 10, 11 and 13. This was the impetus for using 36 cycles of PCR for detection of NRP expression.
Undifferentiated NTERA-2 cells were obtained. Frozen stocks were prepared with a maximum of 2 passages. NRP expression could be assessed in cells having up to 4-5 passages. The cell culture medium included ATCC-formulated DMEM plus 10% FCS. The medium was exchanged every 2-3 days. For passaging, cells were dislodges by scraping and then transferred into 75cm^2 flasks. An initial seeding included 5 million cells in 12-15 ml of cell medium per flask.
Subcultivation was performed for gene expression tests. For subcultivation, cells were dislodged by scraping and then gathered by centrifugation at 1500 rpm for 7 minutes, at 4° C. The media was discarded and the cells were resuspended in 16 ml fresh DMEM/10%FBS. The expected yield was 12-15 million cells in the flask. Thus, the resuspended cells were at a concentration of about 1 million cells per ml.
For passage 3, the remaining 4 ml of cell suspension plus 8 ml culture medium was transferred into new T75 cultivation flask.
[…] All conditions were applied for 15 minutes, 30 minutes, and 60 minutes.
mRNA was then collected. Cells were washed once at the end of the treatment with subsequent cell scraping. Cells were passed through 25-gauge needle into a 15 ml falcon tube. Falcon tube cell content was aspirated, washed once with DMEM, followed by trypsinization. […]
Centrifugation was carried out for 7 minutes at 1500 rpm, at 4° C. The pellets were then ready to be stored either at -80° C. or in liquid nitrogen until RNA extraction.
For RNA extraction, thawed cell pellets were prepared according to manufacturer's instructions (RNeasy Mini from Qiagen). RNA concentration was determined by NanoDropTM. […] For synthesis of sufficient quantities of cDNA, the RNA concentration in the cell samples was ensured to be between 10-20 ng/μl. […]

A further assay deals with neuronal stem cells. Kind of assay: Neuronal chemoattraction. It is filed as cell-based.
The test system of assay [2] is human DU-145 prostate cancer cells. As to the kind of experiment: DU-145 Boyden chamber motility bioassay. The class given is cell-based. The following applies: 0.1 ng/ml NRP2945 adhered to Boyden chamber bottom plate, 24 hours of incubation. The text has this: Human epithelial DU-145 cells were obtained from ATCC (HTB-81). The DU-145 cell line was originally isolated from a metastatic prostate-derived cancer formed in the brain. The cells are adherent, and co-express CXCR4 and CCR3 receptors similar to neuroblasts and neurons. For this experiment, DU-145 cells were cultivated in ATCC-formulated Eagle's Minimum Essential Medium with 10% FBS in 5% CO2 at 37′C. The cells were then subcultivated as follows.
The media was removed and discarded. The cell layer was briefly rinsed with 0.25% (w/v) trypsin and 0.5 mM EDTA to remove all remaining trypsin inhibitors from the serum. To each flask, 2-3 ml of trypsin-EDTA solution was added. This was incubated at room temperature.
The cells were observed under an inverted microscope until dislodgement (between 10-15 minutes). Shaking was avoided to prevent the cells from clumping. […]
The Boyden chamber inserts (Corning) were coated for 2 hours at 37° C. with […] poly-D-lysine (PDL; culture grade from Invitrogen). […] The coated Boyden chamber could then be refrigerated, stored, and ready for cell seeding. […]
Cells were counted and 50,000 cells were seeded into one insert of a 12-well Boyden chamber. […]
DU-145 cells attached to the lower insert membrane were visualized and counted with standard cell visualization methods using hematoxyclin staining. […]

Setting [3] is: normoxic NTERA-2 cells, 1 pM NRP2945.

Square brackets hold non-standard residues; d marks the D form. Ends that are not written are not given here. Aib = CC(C)(N)C(=O)O

Take “Gly Arg Arg Ala Ala Pro Gly Arg Aib Gly Gly (GRRAAPGR[Aib]GG) [NRP2945, synthetic 11-mer peptidomimetic optimized for stability and pharmacokinetics]”: the “time to stimulated endogenous NRP gene expression after administration” value in assay [1] (NTERA-2 cells, 100 pM NRP2945) was in the range of 5 to 10 min. Besides, in assay [1] (NTERA-2 cells, 0.5 mM 3-NP with simultaneous 1 pM NRP2945), the “NRP 13q13.2 gene expression during oxidative stress” value was “up-regulated after 15 minutes and stays elevated during the period of analysis”. The “time frame of exposure for up-regulation of endogenous NRP gene expression (13q13.2)” value in assay [1] (human NTERA-2 cells, autocrine, unpublished results) was at most 10 min. In assay [1] (setting [3]), the “gene expression of NRP 13q13.2” value is given as “highly elevated after only 15 minutes” and the “time of peak NRP 13q13.2 gene expression after peptide contact” value came out at 30 min. Further, in the assay on neuronal stem cells (NRP2945 versus SDF-1), the “neuronal chemoattractive potency relative to SDF-1” value is “more than 1 million”. Further, the “EC50 values for chemoattraction” value in the assay with neuronal stem cells (preliminary experiments) is on record as “lower femtomolar range”. Besides, the “decrease of migrating cells” value in assay [2] was 36%.
